From PubChem BioAssay (NCI)
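Five concentrations, 48 hours, 96-well plates. At the TGI there is no net growth.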

Legend:
Assay in all cases: NCI tumour cell line growth inhibition, 48 h
[1] = test system: RXF-631 renal
[2] = test system: SNB-78 CNS
[3] = test system: HOP-18 NSCLC
[4] = test system: KM20L2 colon
[5] = test system: DMS 114 small cell lung
[6] = test system: LXFL 529 NSCLC
[7] = test system: XF 498 CNS
[8] = test system: DLD-1 colon
[9] = test system: DMS 273 small cell lung
[10] = test system: SN12K1 renal
[11] = test system: P388 leukemia
[12] = test system: P388/ADR leukemia

Measured: TGI

COc1ccc2cc3[nH]c(=O)cc(O)c3cc2c1OC
> 100 µM: [1] | [2] | [3] | [4] | [5] | [6] | [7]

COc1ccc(C2SCC(=O)N2NC(=O)c2ccncc2)cc1F (stereo unspecified)
not listed: [1] | [10] | [11] | [12]
> 100 µM: all other assays above

COc1cc2cc3c4cc(OC)c(OC)cc4cc[n+]3cc2cc1OC
6.6 µM: [5]
not listed: [1] | [6]
> 100 µM: all other assays above

CC(C)OP(=O)(OC(C)C)c1nc(-c2ccccc2)n(-c2ccc([N+](=O)[O-])cc2)n1
> 100 µM: [8] | [9] | [4] | [5] | [6] | [7]
